Test results reported in publication PMC7506137, “Selective Phosphodiesterase 1 Inhibitor BTTQ Reduces Blood Pressure in Spontaneously Hypertensive and Dahl Salt Sensitive Rats: Role of Peripheral Vasodilation” (Frontiers in Physiology, 2020).

Test system: mesenteric arteries from Dahl SS rats
Assay: Myography in isolated mesenteric arteries
Set-up: species or system Rat
Excerpt: For studies of the mesenteric arteries, rats were anesthetized using 5% isoflurane gas followed by euthanasia by secondary method. Small mesenteric arteries (∼300-μm internal diameter, 350-μm external diameter) supplying the small intestine were carefully excised under a dissecting microscope (Leica; Buffalo, NY, United States) and immersed in a cold physiological salt solution having the following ionic composition (in mM): NaCl (119.0), KCl (4.7), CaCl2 (1.6), NaH2PO4 (1.18), MgSO4 (1.17), NaHCO3 (24.0), D-glucose (5.5), and EDTA (0.03). The arteries were cannulated at the proximal and distal ends using glass micropipettes. The vessels were equilibrated with a 21% O2, 5% CO2, 74% N2 gas mixture at 37°C in the physiological salt solution for 30 min. The intraluminal pressure was maintained at 80 mmHg to approximate in vivo conditions, and the internal diameter of the artery was measured using television microscopy. Responses to vasodilator stimuli (different BTTQ concentrations) were determined in arteries precontracted with 10 μM phenylephrine (PE) and expressed as % increase from basal (PE-precontracted) diameter. Responses of the mesenteric arteries to the endothelium-dependent vasodilator agonist acetylcholine (ACh) were evaluated in SS rats fed a high salt diet (4% NaCl) for 3 weeks and treated with BTTQ (3 mg/kg) p.o. gavage twice daily or vehicle.

## O=c1c2nnc(C3(C4CC4)CC3)n2c2c(n1CC1CC1)CCCC2 [BTTQ, 1-[1,1′-bi(cyclopropyl)-1-yl]-5-(cyclopropylmethyl)-6,7,8,9-tetrahydro[1,2,4]triazolo[4,3-A]quinoxaline-4(5H)-one]
1 mM, arteries pre-constricted with 10 μM phenylephrine
  relaxation, % of the initial fully relaxed diameter: about 92%
Arteries from Dahl SS rats treated by oral gavage (3 mg/kg twice daily), high salt diet 21 days
  acetylcholine-induced vasorelaxation, treated vs vehicle group: no significant difference
Escalating concentrations, pre-constricted with 10 μM phenylephrine
  relaxation of mesenteric arteries compared to the vehicle: concentration-dependent relaxation
